Results published in US20240101576A1, “HETEROCYCLIC INHIBITORS OF EGFR AND/OR HER2, FOR USE IN THE TREATMENT OF CANCER” (Scorpion Therapeutics, Inc., priority 2020, published 2024).

How the values were obtained:
Format in all cases: cell-based
[1] = target: T1, EGFR exon 20 FQEA Ins A763_V764 (Ba/F3 cells) (Homo sapiens, UniProt P00533, INS763FQEA); test: Inhibitor activity on EGFR-dependent cell growth (CellTiter-Glo, 72 h), Ba/F3 EGFR exon 20 FQEA Ins; conditions: read-out: BaF3 FQEA IC50
T1 construct: expressed in transfected cells; host or cells: Ba/F3 (murine pro-B cells), retroviral transduction, puromycin selection, IL3-independent pool
T1 sequence (P00533 with tags, fused parts or gaps INS763FQEA): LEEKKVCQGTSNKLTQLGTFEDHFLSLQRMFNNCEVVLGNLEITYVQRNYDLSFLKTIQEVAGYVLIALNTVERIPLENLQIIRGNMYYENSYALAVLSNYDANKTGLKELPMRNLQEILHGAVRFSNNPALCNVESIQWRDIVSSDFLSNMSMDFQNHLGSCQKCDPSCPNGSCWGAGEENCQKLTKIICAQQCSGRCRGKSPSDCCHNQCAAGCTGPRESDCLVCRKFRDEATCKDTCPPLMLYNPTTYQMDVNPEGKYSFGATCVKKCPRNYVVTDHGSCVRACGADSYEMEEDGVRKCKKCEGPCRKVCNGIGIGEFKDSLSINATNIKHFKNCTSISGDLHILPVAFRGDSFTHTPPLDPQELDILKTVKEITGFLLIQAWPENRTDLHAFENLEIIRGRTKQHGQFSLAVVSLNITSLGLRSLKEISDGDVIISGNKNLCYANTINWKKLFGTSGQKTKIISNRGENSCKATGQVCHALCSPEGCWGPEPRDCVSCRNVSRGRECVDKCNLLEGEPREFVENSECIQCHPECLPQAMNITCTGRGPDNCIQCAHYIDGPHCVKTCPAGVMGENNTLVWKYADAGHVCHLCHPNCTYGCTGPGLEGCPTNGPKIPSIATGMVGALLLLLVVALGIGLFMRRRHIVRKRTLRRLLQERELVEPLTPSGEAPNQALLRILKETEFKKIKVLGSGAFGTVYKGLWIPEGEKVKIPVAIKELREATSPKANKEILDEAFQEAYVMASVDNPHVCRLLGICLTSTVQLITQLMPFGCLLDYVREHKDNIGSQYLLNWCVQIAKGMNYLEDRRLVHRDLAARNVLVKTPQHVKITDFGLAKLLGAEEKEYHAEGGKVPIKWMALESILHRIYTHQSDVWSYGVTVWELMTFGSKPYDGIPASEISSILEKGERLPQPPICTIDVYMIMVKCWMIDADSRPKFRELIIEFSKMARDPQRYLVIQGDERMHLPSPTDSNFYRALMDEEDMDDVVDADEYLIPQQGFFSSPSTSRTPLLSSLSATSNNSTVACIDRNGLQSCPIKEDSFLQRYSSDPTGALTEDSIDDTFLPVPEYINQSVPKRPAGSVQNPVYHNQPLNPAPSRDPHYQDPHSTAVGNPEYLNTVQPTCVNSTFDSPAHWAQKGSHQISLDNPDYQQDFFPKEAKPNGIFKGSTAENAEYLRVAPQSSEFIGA
From the text: (§1) Example A. Inhibitor Activity on EGFR-Dependent Cell Growth
(§2) Cell lines are generated by transducing Ba/F3 cells with retroviruses containing vectors with EGFR WT, EGFR L858R, EGFR exon 19del, EGFR L858R/C797S, EGFR exon 20 NPG Ins D770_N771, EGFR exon 20 ASV Ins V769_D770, EGFR exon 20 SVD Ins D770_N771, or EGFR exon 20 FQEA Ins A763_V764 genes and a puromycin selection marker. Transduced cells are selected with puromycin for 7 days and are then be transferred into culture media without Interleukin 3 (IL3). EGFR WT cells are maintained with supplemental EGF. Surviving cells are confirmed to express EGFR by Western blot and maintained as a pool. The IC50 date were included in Table 6 and Table 7.
(§3) 1.1 Cells are harvested from flask into cell culture medium and the cell number counted.
(§4) 1.2 Cells are diluted with culture medium to the desired density and 40 μL of cell suspension is added into each well of 384-well cell culture plate and the seeding density is 800 (FQEA, exon 19del), 600 (WT, NPG, L858R/C797S), or 400 (ASV, SVD, L858R) cells/well.
(§5) 2 Compound Preparation and Treatment
(§6) 2.1 Test compounds are dissolved to 10 mM in a DMSO stock solution. 45 μL of stock solution is transferred to a 384 polypropylene plate (pp-plate). Perform 3-fold, 10-point dilution via transferring 15 μL compound into 30 μL DMSO using a TECAN (EVO200) liquid handler.
(§7) 2.2 Spin plates at room temperature at 1,000 RPM for 1 minute.
(§8) 2.3 Transfer 120 nL of diluted compound from compound source plate into the cell plate.
(§9) 2.4 After compound treatment for 72 hours, perform CTG detection for compound treatment plates as described in “Detection” section.
(§10) 3.1 Plates are removed from incubators and equilibrated at room temperature for 15 minutes.
(§11) 3.2 Thaw the CellTiter Glo reagents and allow to equilibrate to room temperature before the experiment.
(§12) 3.3 Add 40 μL of CellTiter-Glo reagent into each well (at 1:1 to culture medium). Then place the plates at room temperature for 30 min followed by reading on EnVision.
(§13) 4.1 Inhibition activity is calculated following the formula below:
(§14) % Inhibition=100×(LumHC−LumSample)/(LumHC−LumLC) • where HC is obtained from cells treated with 0.1% DMSO only; and LC is obtained from culture medium only.
(§15) 4.2 2. Calculate the IC50 by fitting the Curve using Xlfit (v5.3.1.3), equation 201.
(§16) Y=Bottom+(Top−Bottom)/(1+10^((Log IC50−X)*HillSlope))

[2] = target: T2, EGFR WT (Ba/F3 cells) (Homo sapiens, UniProt P00533); test: Inhibitor activity on EGFR-dependent cell growth (CellTiter-Glo, 72 h), Ba/F3 EGFR WT; conditions: read-out: BaF3 WT IC50
T2 construct: expressed in transfected cells; host or cells: Ba/F3 (murine pro-B cells), retroviral transduction, puromycin selection, maintained with EGF
T2 sequence (P00533 25-1210): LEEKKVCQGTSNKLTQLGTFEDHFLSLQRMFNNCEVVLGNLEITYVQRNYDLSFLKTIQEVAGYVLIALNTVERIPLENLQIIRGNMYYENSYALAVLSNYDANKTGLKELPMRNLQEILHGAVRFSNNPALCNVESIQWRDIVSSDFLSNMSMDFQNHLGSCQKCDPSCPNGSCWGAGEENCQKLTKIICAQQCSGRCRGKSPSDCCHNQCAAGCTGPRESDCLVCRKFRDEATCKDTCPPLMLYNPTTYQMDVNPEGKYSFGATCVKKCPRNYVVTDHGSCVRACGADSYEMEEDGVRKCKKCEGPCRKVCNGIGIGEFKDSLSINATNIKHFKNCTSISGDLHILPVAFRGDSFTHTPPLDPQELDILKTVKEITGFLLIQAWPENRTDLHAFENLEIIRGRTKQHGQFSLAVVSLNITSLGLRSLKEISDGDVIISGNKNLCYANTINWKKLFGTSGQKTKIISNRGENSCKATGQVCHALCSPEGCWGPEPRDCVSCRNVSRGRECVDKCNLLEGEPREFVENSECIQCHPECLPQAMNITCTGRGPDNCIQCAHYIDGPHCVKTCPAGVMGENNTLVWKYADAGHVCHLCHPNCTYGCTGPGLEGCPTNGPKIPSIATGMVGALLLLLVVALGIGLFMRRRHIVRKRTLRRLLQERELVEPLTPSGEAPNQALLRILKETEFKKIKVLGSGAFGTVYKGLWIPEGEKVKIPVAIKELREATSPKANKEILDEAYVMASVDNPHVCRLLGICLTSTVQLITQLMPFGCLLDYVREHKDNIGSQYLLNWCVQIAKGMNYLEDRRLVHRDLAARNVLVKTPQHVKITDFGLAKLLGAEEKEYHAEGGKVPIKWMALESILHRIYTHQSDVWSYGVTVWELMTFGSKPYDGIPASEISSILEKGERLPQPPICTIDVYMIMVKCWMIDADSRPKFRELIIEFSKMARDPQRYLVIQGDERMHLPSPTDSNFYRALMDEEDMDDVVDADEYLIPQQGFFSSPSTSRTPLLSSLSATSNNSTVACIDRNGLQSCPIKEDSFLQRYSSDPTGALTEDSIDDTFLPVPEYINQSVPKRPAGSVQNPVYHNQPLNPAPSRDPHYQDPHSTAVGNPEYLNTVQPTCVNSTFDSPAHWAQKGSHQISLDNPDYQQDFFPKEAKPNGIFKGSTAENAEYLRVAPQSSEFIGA
From the text: as §1, §2, §3, §4, §5, §6, §7, §8, §9, §10, §11, §12, §13, §14, §15, §16

[3] = target: T3, EGFR exon 20 ASV Ins V769_D770 (Ba/F3 cells) (Homo sapiens, UniProt P00533, INS769ASV); test: Inhibitor activity on EGFR-dependent cell growth (CellTiter-Glo, 72 h), Ba/F3 EGFR exon 20 ASV Ins; conditions: read-out: BaF3 ASV IC50
T3 construct: expressed in transfected cells; host or cells: Ba/F3 (murine pro-B cells), retroviral transduction, puromycin selection, IL3-independent pool
T3 sequence (P00533 with tags, fused parts or gaps INS769ASV): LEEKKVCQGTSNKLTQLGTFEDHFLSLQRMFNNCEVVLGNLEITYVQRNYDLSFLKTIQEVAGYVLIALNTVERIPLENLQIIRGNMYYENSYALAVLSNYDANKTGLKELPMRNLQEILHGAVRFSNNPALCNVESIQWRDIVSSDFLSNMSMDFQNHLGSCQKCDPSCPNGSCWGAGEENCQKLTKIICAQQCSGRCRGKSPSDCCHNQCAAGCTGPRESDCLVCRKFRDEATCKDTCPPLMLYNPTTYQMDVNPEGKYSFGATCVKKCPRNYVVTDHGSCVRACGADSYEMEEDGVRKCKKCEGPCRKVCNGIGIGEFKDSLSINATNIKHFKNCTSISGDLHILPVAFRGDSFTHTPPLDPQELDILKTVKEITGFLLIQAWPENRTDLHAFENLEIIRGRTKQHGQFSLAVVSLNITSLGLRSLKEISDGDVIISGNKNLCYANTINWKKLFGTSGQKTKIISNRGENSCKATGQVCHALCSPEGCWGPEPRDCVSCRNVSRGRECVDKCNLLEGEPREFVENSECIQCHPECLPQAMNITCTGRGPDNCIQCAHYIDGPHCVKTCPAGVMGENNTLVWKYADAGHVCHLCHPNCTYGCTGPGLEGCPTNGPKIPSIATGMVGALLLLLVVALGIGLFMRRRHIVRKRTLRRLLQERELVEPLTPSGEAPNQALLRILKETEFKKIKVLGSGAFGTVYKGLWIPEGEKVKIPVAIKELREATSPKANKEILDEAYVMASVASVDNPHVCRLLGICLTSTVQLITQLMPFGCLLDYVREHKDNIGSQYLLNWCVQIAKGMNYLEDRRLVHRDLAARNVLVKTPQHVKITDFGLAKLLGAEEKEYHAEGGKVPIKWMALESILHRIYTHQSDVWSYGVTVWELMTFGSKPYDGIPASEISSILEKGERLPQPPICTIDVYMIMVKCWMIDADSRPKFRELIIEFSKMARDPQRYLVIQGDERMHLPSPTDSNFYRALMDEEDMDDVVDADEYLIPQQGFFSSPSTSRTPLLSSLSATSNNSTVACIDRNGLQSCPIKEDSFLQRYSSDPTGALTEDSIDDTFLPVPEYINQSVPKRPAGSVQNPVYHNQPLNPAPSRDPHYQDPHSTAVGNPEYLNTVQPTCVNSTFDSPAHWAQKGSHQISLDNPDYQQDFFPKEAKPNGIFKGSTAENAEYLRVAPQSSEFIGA
From the text: as §1, §2, §3, §4, §5, §6, §7, §8, §9, §10, §11, §12, §13, §14, §15, §16

[4] = target: T4, EGFR exon 20 SVD Ins D770_N771 (Ba/F3 cells) (Homo sapiens, UniProt P00533, INS770SVD); test: Inhibitor activity on EGFR-dependent cell growth (CellTiter-Glo, 72 h), Ba/F3 EGFR exon 20 SVD Ins; conditions: read-out: BaF3 SVD IC50
T4 construct: expressed in transfected cells; host or cells: Ba/F3 (murine pro-B cells), retroviral transduction, puromycin selection, IL3-independent pool
T4 sequence (P00533 with tags, fused parts or gaps INS770SVD): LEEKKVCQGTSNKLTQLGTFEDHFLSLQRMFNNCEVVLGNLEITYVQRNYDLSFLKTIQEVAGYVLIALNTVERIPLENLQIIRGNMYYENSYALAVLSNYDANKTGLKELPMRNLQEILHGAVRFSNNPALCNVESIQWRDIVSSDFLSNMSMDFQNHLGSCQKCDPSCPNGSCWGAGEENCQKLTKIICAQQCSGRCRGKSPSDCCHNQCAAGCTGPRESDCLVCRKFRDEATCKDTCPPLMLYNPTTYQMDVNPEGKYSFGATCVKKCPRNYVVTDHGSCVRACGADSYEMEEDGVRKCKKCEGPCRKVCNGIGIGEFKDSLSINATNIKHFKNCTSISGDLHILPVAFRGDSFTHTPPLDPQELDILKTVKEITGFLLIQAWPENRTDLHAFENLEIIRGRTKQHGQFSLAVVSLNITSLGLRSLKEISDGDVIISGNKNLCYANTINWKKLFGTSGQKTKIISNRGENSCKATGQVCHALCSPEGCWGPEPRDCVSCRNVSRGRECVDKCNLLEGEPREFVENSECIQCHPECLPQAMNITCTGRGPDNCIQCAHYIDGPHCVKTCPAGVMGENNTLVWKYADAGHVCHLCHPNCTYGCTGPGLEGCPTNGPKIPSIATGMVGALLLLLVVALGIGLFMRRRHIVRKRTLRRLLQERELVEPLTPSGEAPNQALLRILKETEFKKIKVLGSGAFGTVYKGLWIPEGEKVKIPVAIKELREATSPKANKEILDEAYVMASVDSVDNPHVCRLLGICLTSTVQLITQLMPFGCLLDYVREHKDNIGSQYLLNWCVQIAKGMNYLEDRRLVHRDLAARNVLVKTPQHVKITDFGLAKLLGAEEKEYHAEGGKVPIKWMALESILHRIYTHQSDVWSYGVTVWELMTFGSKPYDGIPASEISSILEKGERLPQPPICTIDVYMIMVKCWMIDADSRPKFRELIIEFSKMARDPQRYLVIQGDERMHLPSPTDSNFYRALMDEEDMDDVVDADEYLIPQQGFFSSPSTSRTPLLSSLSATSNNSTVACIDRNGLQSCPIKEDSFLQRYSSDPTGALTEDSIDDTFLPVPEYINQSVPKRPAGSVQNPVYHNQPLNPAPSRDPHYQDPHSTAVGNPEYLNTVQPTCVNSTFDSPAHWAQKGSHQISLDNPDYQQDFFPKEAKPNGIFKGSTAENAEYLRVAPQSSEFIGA
From the text: as §1, §2, §3, §4, §5, §6, §7, §8, §9, §10, §11, §12, §13, §14, §15, §16

Row | SMILES | IC50 [1] [nM] | IC50 [2] [nM] | IC50 [3] [nM] | IC50 [4] [nM]
1 | COc1c(Cl)cccc1Nc1c(-c2ccnc3ccc(OC4(C)CC4)nc23)[nH]c2c1C(=O)NC[C@H]2C (single isomer, unassigned) [Compound 774] | < 100 | < 100 | < 100 | < 100
2 | COc1c(Cl)cccc1Nc1c(-c2ccnc3ccc(OC4(C)CC4)nc23)[nH]c2c1C(=O)NC[C@@H]2C (single isomer, unassigned) [Compound 775] | < 100 | < 100 | < 100 | < 100
3 | COc1c(Cl)cccc1Nc1c(-c2ccncc2F)[nH]c2c1C(=O)NC[C@H]2CC(=O)N(C)C [Compound 487] | 100 to 1000 | > 1000 | 100 to 1000 | 100 to 1000
4 | COc1c(Cl)cccc1Nc1c(-c2ccncc2F)[nH]c2c1C(=O)NC[C@@H]2CC(C)(C)O [Compound 496, (7S)-3-[(3-chloro-2-methoxyphenyl)amino]-2-(3-fluoropyridin-4-yl)-7-(2-hydroxy-2-methylpropyl)-1H,5H,6H,7H-pyrrolo[3,2-c]pyridin-4-one] | 100 to 1000 | > 1000 | 100 to 1000 | 100 to 1000
5 | COc1c(Cl)cccc1Nc1c(-c2ccncc2F)[nH]c2c1C(=O)NCC2CCF (centres unmarked) [Compound 473, 3-[(3-chloro-2-methoxyphenyl)amino]-7-(2-fluoroethyl)-2-(3-fluoropyridin-4-yl)-1H,5H,6H,7H-pyrrolo[3,2-c]pyridin-4-one] | 100 to 1000 | > 1000 | 100 to 1000 | 100 to 1000
6 | COc1c(Cl)cccc1Nc1c(-c2ccncc2F)[nH]c2c1C(=O)NC[C@H]2CC1COC1 [468b] | 100 to 1000 | > 1000 | 100 to 1000 | 100 to 1000
7 | COc1c(F)cccc1Nc1c2c(n(C)c1-c1ccncc1F)CCNC2=O [Compound 789, 3-[(3-fluoro-2-methoxyphenyl)amino]-2-(3-fluoropyridin-4-yl)-1-methyl-5H,6H,7H-pyrrolo[3,2-c]pyridin-4-one] | > 1000 | > 1000 | > 1000 | > 1000
8 | COc1ncc2nccc(-c3[nH]c4c(c3Nc3cccc(Cl)c3OC)C(=O)N[C@H](C(F)(F)F)C4)c2n1 [Compound 508, (6S)-3-[(3-chloro-2-methoxyphenyl)amino]-2-{2-methoxypyrido[3,2-d]pyrimidin-8-yl}-6-(trifluoromethyl)-1H,5H,6H,7H-pyrrolo[3,2-c]pyridin-4-one] | 100 to 1000 | > 1000 | > 1000 | 100 to 1000
9 | COc1ncc2nccc(-c3[nH]c4c(c3Nc3cccc(Cl)c3Cl)C(=O)NCC4)c2n1 [Compound 803, 3-[(2,3-dichlorophenyl)amino]-2-[2-methoxypyrido[3,2-d]pyrimidin-8-yl]-1H,5H,6H,7H-pyrrolo[3,2-c]pyridin-4-one] | < 100 | 100 to 1000 | < 100 | < 100
10 | CC[C@H]1CNC(=O)c2c1[nH]c(-c1ccnc(N)n1)c2Nc1cccc(Cl)c1OC [189b] | < 100 | 100 to 1000 | < 100 | < 100
11 | COc1c(Cl)cccc1Nc1c(-c2ccncc2F)[nH]c2c1C(=O)NC[C@@]21CCOC1 (single isomer, unassigned) [Compound 781] | 100 to 1000 | > 1000 | 100 to 1000 | 100 to 1000
12 | COc1c(F)cccc1Nc1c(-c2ccncc2F)[nH]c2c1C(=O)NC[C@@H]2C[C@@H]1CCO1 [Compound 422b, (7S)-3-[(3-fluoro-2-methoxyphenyl)amino]-2-(3-fluoropyridin-4-yl)-7-[(2R)-oxetan-2-ylmethyl]-1H,5H,6H,7H-pyrrolo[3,2-c]pyridin-4-one] | 100 to 1000 | > 1000 | 100 to 1000 | 100 to 1000
13 | COc1c(Cl)cccc1Nc1c(-c2ccnc3cnc(OC4CC4)nc23)[nH]c2c1C(=O)NCC2 [Compound 771, 3-[(3-chloro-2-methoxyphenyl)amino]-2-{2-cyclopropoxypyrido[3,2-d]pyrimidin-8-yl}-1H,5H,6H,7H-pyrrolo[3,2-c]pyridin-4-one] | < 100 | < 100 | < 100 | < 100

The next lines start with the values.

Row | IC50 [1] [nM] | IC50 [2] [nM] | IC50 [3] [nM] | IC50 [4] [nM] | SMILES
14 | 100 to 1000 | > 1000 | < 100 | < 100 | COc1c(Cl)cccc1Nc1c(-c2ccnc(Nc3cnoc3C)n2)[nH]c2c1C(=O)NCC2 [compound 510, 3-[(3-chloro-2-methoxyphenyl)amino]-2-{2-[(5-methyl-1,2-oxazol-4-yl)amino]pyrimidin-4-yl}-1H,5H,6H,7H-pyrrolo[3,2-c]pyridin-4-one]
15 | 100 to 1000 | > 1000 | 100 to 1000 | 100 to 1000 | COc1c(Cl)cccc1Nc1c(-c2ccnc(-c3ccn(C)n3)n2)[nH]c2c1C(=O)NCC2 [compound 544, 3-[(3-chloro-2-methoxyphenyl)amino]-2-[2-(1-methylpyrazol-3-yl)pyrimidin-4-yl]-1H,5H,6H,7H-pyrrolo[3,2-c]pyridin-4-one]
16 | 100 to 1000 | 100 to 1000 | < 100 | 100 to 1000 | COc1c(Cl)cccc1Nc1c(-c2ccnc3ccc(OCC4CCC4)nc23)[nH]c2c1C(=O)NCC2 [compound 756, 3-[(3-chloro-2-methoxyphenyl)amino]-2-[6-(cyclobutylmethoxy)-1,5-naphthyridin-4-yl]-1H,5H,6H,7H-pyrrolo[3,2-c]pyridin-4-one]
17 | 100 to 1000 | > 1000 | 100 to 1000 | 100 to 1000 | COc1c(F)cccc1Nc1c(-c2ccncc2)[nH]c2c1C(=O)NCC2 [compound 243]
18 | 100 to 1000 | > 1000 | 100 to 1000 | < 100 | COc1c(F)cccc1Nc1c(-c2ccnc3cc(F)cnc23)[nH]c2c1C(=O)NCC2 [Compound 825, 2-(7-fluoro-1,5-naphthyridin-4-yl)-3-[(3-fluoro-2-methoxyphenyl)amino]-1H,5H,6H,7H-pyrrolo[3,2-c]pyridin-4-one]
19 | < 100 | < 100 | < 100 | < 100 | COc1c(Cl)cccc1Nc1c(-c2ccnc3ccc(OC4CCOCC4)nc23)[nH]c2c1C(=O)NCC2 [compound 740, 3-[(3-chloro-2-methoxyphenyl)amino]-2-[6-(oxan-4-yloxy)-1,5-naphthyridin-4-yl]-1H,5H,6H,7H-pyrrolo[3,2-c]pyridin-4-one]
20 | < 100 | 100 to 1000 | < 100 | < 100 | COc1c(Cl)cccc1Nc1c(-c2ccnc(Nc3ccc(N4CCN(C)CC4)nc3)n2)[nH]c2c1C(=O)NCC2 [compound 518, 3-[(3-chloro-2-methoxyphenyl)amino]-2-(2-{[6-(4-methylpiperazin-1-yl)pyridin-3-yl]amino}pyrimidin-4-yl)-1H,5H,6H,7H-pyrrolo[3,2-c]pyridin-4-one]
21 | < 100 | < 100 | < 100 | < 100 | COc1c(Cl)cccc1Nc1c(-c2ccnc3ccc(OC(C)C)nc23)[nH]c2c1C(=O)NCC2 [compound 762, 3-[(3-chloro-2-methoxyphenyl)amino]-2-(6-isopropoxy-1,5-naphthyridin-4-yl)-1H,5H,6H,7H-pyrrolo[3,2-c]pyridin-4-one]
22 | 100 to 1000 | > 1000 | 100 to 1000 | 100 to 1000 | COc1c(F)cccc1Nc1c(-c2ccncc2F)[nH]c2c1C(=O)NCC2 [compound 418]
23 | 100 to 1000 | > 1000 | > 1000 | > 1000 | COc1ncc2nccc(-c3[nH]c4c(c3Nc3c(F)cccc3F)C(=O)NCC4)c2n1 [Compound 806, 3-[(2,6-difluorophenyl)amino]-2-[2-methoxypyrido[3,2-d]pyrimidin-8-yl]-1H,5H,6H,7H-pyrrolo[3,2-c]pyridin-4-one]
